{
  "source": "paper PMC8400257",
  "about": "“2-Phenoxy-3-Trichloromethylquinoxalines Are Antiplasmodial Derivatives with Activity against the Apicoplast of Plasmodium falciparum” (Pharmaceuticals, 2021)",
  "key": {"[1]": {"tested_on": "Plasmodium falciparum blood stage parasites", "test": "Growth assay over three life cycles (delayed death)", "format": "cell-based", "details": "0.2 µM; 48, 96, 144 h", "procedure": "To determine the impact of (3i) on apicoplast biogenesis, parasites were treated for 48 h with 0.2 µM of (3i) or 0.2 µM of (2i) (a control of (3i) for which the active CCl3 was replaced by a methyl CH3 group) and compared to untreated parasites by immunofluorescence assay. […] In order to determine if the apicoplast is the main target of (3i), we performed a growth assay over three life cycles to assess a potential delayed death effect, one of the major signature for compounds affecting apicoplast. […] The second interpretation could be that, unlike chloramphenicol or doxycycline, which cause a delayed death phenotype on Plasmodium, (3i) could act like fosmidomycin or actinonin and cause a rapid death phenotype.\nTo observe a potential effect of delayed death of the molecule on the parasite, Plasmodium was maintained on three life cycles (48 h). […] Fluorescence from each well was measured with TECAN infinite M200 plate reader (excitation: 485 nm, emission: 538 nm and integration time: 1000 μs). […] A graph was obtained by performing the ration of the treated culture fluorescence intensity on the untreated culture fluorescence intensity (n = 3)."}, "[2]": {"tested_on": "F32-ART5 and F32-TEM parasites", "test": "Recrudescence assay", "format": "cell-based, Plasmodium falciparum", "details": "48 h exposure; 2.5 µM 3i or 18 µM ART; log-rank Mantel-Cox test", "procedure": "Recrudescence assay was performed to evaluate the ability of the F32-ART5 parasites to survive drug exposure comparatively to the F32-TEM parasites. D-sorbitol synchronized ring-stages at 3% parasitemia (2% hematocrit) were exposed to drug for 48 h. After drug exposure, parasite cultures were washed with RPMI-1640 medium and replaced in normal drug-free culture conditions. The time to parasite recrudescence was determined as the time required to reach the 3% initial parasitemia. […] Each experiment was performed for F32-ART5 and F32-TEM and cultivated in parallel in the same conditions to generate paired results. This was carried out at least three times independently. A statistical analysis (log-rank Mantel–Cox test) was carried out on data thanks to a Kaplan–Meier survival analysis (using GraphPad Prism software) considering censored data.\nFigure S48. 13C NMR spectrum of 2i in CDCl3, on a Bruker ARX 101 spectrometer\n2. […]\n3. Studying the effect of (3i) on the liver stage development of P. falciparum Cryopreserved primary human hepatocytes were seeded in 96 well plates with a pre-determined seeding dose that gave a single dense layer of attached hepatocytes. […]\nThe culture medium with or without drugs was refreshed every 48 hours and two independent plates were studied. […] Plates were subjected to quantification using an automated plate scanner. […]"}},
  "data": [
    {"smiles": "O=[N+]([O-])c1ccc(Oc2nc3ccccc3nc2C(Cl)(Cl)Cl)cc1", "note": "[3i, 2-(4-Nitrophenoxy)-3-trichloromethylquinoxaline]", "values": [
      {"measurement": "Parasite growth over three life cycles (ratio treated/untreated)", "setting": "[1]", "result": "drastic reduction in the parasite growth within the first life cycle"},
      {"measurement": "Recrudescence of F32-ART5 compared with F32-TEM after drug exposure", "setting": "[2]", "result": "faster recrudescence"}
    ]}
  ]
}
